Measured values: a compilation of properties of binary mixtures (doi:10.1016/j.molliq.2021.115373)

Test: xn = mol fraction of the nth substance listed
Details: 101 kPa

CC[N+](C)(CC)CCOC.O=S(=O)([N-]S(=O)(=O)C(F)(F)F)C(F)(F)F + O=C1CCCO1
Details | electrical conductivity [S/m] | viscosity [mPa·s]
288.15 K, x1 = 0.3003 | 0.818 | 14.42
288.15 K, x1 = 0.4007 | 0.638 | 21.86
288.15 K, x1 = 0.6999 | 0.342 | 87.8
288.15 K, x1 = 0.8001 | 0.271 | 118.2
288.15 K, x1 = 0.9003 | 0.189 | 159.3
288.15 K, x1 = 1 | 0.147 | 225
293.15 K, x1 = 0.2006 | 1.16 | 7.44
293.15 K, x1 = 0.4007 | 0.737 | 18.34
293.15 K, x1 = 0.6002 | 0.508 | 49.4
293.15 K, x1 = 0.6999 | 0.429 | 67.7
293.15 K, x1 = 0.8001 | 0.336 | 90
293.15 K, x1 = 0.9003 | 0.246 | 118.6
298.15 K, x1 = 0.2006 | 1.29 | 6.32
298.15 K, x1 = 0.3003 | 1.03 | 10.43
298.15 K, x1 = 0.4998 | 0.688 | 24.17
298.15 K, x1 = 0.6002 | 0.595 | 37.96
298.15 K, x1 = 0.6999 | 0.504 | 51.5
298.15 K, x1 = 0.8001 | 0.413 | 68.2
298.15 K, x1 = 0.9003 | 0.31 | 88.5
298.15 K, x1 = 1 | 0.24 | 119.2
303.15 K, x1 = 0.1004 | 1.41 | 2.972
303.15 K, x1 = 0.2006 | 1.45 | 5.4
303.15 K, x1 = 0.3003 | 1.16 | 8.87
303.15 K, x1 = 0.4007 | 0.956 | 12.54
303.15 K, x1 = 0.4998 | 0.791 | 19.36
303.15 K, x1 = 0.6002 | 0.688 | 29.46
303.15 K, x1 = 0.8001 | 0.488 | 51.5
303.15 K, x1 = 0.9003 | 0.382 | 67.4
308.15 K, x1 = 0.1004 | 1.52 | 2.401
308.15 K, x1 = 0.2006 | 1.59 | 4.634
308.15 K, x1 = 0.6002 | 0.786 | 23.31
308.15 K, x1 = 0.6999 | 0.693 | 30.64
308.15 K, x1 = 0.8001 | 0.576 | 39.71
308.15 K, x1 = 1 | 0.365 | 67.7
313.15 K, x1 = 0.3003 | 1.43 | 6.47
313.15 K, x1 = 0.4007 | 1.21 | 8.94
313.15 K, x1 = 0.4998 | 1.02 | 12.56
313.15 K, x1 = 0.6002 | 0.898 | 18.36
313.15 K, x1 = 0.6999 | 0.805 | 24.16
313.15 K, x1 = 0.9003 | 0.545 | 39.51
313.15 K, x1 = 1 | 0.44 | 53
318.15 K, x1 = 0.1004 | 1.77 | 1.55
318.15 K, x1 = 0.2006 | 1.92 | 3.357
318.15 K, x1 = 0.3003 | 1.57 | 5.5
318.15 K, x1 = 0.4007 | 1.35 | 7.5
318.15 K, x1 = 0.4998 | 1.15 | 10.47
318.15 K, x1 = 0.6999 | 0.916 | 19.03
318.15 K, x1 = 0.8001 | 0.782 | 24.04
318.15 K, x1 = 0.9003 | 0.645 | 30.79
318.15 K, x1 = 1 | 0.521 | 40.98
323.15 K, x1 = 0.1004 | 1.89 | 1.264
323.15 K, x1 = 0.3003 | 1.72 | 4.76
323.15 K, x1 = 0.6999 | 1.03 | 14.91
323.15 K, x1 = 0.8001 | 0.888 | 18.65
323.15 K, x1 = 0.9003 | 0.739 | 24.72
323.15 K, x1 = 1 | 0.609 | 33.06
328.15 K, x1 = 0.1004 | 2.02 | 1.025
328.15 K, x1 = 0.2006 | 2.22 | 2.567
328.15 K, x1 = 0.3003 | 1.88 | 4.154
328.15 K, x1 = 0.4007 | 1.64 | 5.51
328.15 K, x1 = 0.4998 | 1.44 | 7.25
328.15 K, x1 = 0.6999 | 1.15 | 11.99
328.15 K, x1 = 0.8001 | 1 | 14.94
328.15 K, x1 = 0.9003 | 0.844 | 19.43
333.15 K, x1 = 0.1004 | 2.15 | 0.838
333.15 K, x1 = 0.2006 | 2.38 | 2.237
333.15 K, x1 = 0.3003 | 2.07 | 3.578
333.15 K, x1 = 0.4998 | 1.59 | 6.07
333.15 K, x1 = 0.6002 | 1.42 | 7.65
333.15 K, x1 = 0.6999 | 1.29 | 9.72
333.15 K, x1 = 0.8001 | 1.12 | 11.69
333.15 K, x1 = 0.9003 | 0.956 | 16.5
338.15 K, x1 = 0.1004 | 2.27 | 0.686
338.15 K, x1 = 0.2006 | 2.56 | 1.957
338.15 K, x1 = 0.3003 | 2.24 | 3.117
338.15 K, x1 = 0.4007 | 1.99 | 4.059
338.15 K, x1 = 0.4998 | 1.75 | 5.21
338.15 K, x1 = 0.6002 | 1.56 | 6.3
338.15 K, x1 = 0.6999 | 1.41 | 7.76
338.15 K, x1 = 0.8001 | 1.24 | 9.36
338.15 K, x1 = 0.9003 | 1.07 | 13.36
338.15 K, x1 = 1 | 0.935 | 17.49
343.15 K, x1 = 0.1004 | 2.41 | 0.558
343.15 K, x1 = 0.2006 | 2.74 | 1.718
343.15 K, x1 = 0.4007 | 2.17 | 3.53
343.15 K, x1 = 0.6002 | 1.72 | 4.94
343.15 K, x1 = 0.6999 | 1.54 | 6.16
343.15 K, x1 = 0.8001 | 1.37 | 7.56
343.15 K, x1 = 0.9003 | 1.2 | 10.95
343.15 K, x1 = 1 | 1.05 | 14.91
348.15 K, x1 = 0.1004 | 2.56 | 0.458
348.15 K, x1 = 0.2006 | 2.91 | 1.517
348.15 K, x1 = 0.3003 | 2.63 | 2.346
348.15 K, x1 = 0.4998 | 2.12 | 3.777
348.15 K, x1 = 0.6002 | 1.88 | 4.265
348.15 K, x1 = 0.8001 | 1.5 | 6.13
348.15 K, x1 = 1 | 1.18 | 12.3
353.15 K, x1 = 0.1004 | 2.7 | 0.392
353.15 K, x1 = 0.4007 | 2.55 | 2.74
353.15 K, x1 = 0.4998 | 2.3 | 3.376
353.15 K, x1 = 0.6999 | 1.84 | 4.04
353.15 K, x1 = 0.8001 | 1.64 | 4.81
353.15 K, x1 = 1 | 1.31 | 10.28
